In patent US7534809B2, “Phospho-indoles as HIV inhibitors” (priority 2004, dated 2009):
pEC50: −log10 of the molar value. Like-named read-outs stand apart in the source and are kept apart here.

Assays:
HIV BH-10 WT = experiment: Cell-based assay using BH-10 cells, wild type
[1] = test system: HIV mutant strain K103N/Y181C; experiment: Cell-based assay using BH-10 cells, K103N/Y181C mutant
Procedure: (§1) In a typical embodiment, the NNRTIs display an EC50 in a mutant HIV strain of less than approximately 5, 2.5, 1 or 0.1 μM concentration. The degree of cross-resistance against a drug resistant strain of HIV is measured by assessing the EC50 of the desired oxo-pyrimidine compound in the target mutated, i.e., drug resistant, virus.
(§2) The degree of cross-resistance against a drug resistant strain of HIV can easily be measured by assessing the EC50 of the desired indole in the target mutated i.e., drug resistant, virus.

HIV mutant strain Y181C = experiment: Cell-based assay using BH-10 cells, Y181C mutant
Procedure: as §1, §2

[2] = Human immunodeficiency virus 1, read-out: EC50 WT///B, BH-10 cells, wild type
[3] = Human immunodeficiency virus 1, read-out: EC50 K103N/Y181C, BH-10 cells, K103N/Y181C mutant
[4] = Human immunodeficiency virus 1, read-out: EC50 Y181C, BH-10 cells, Y181C mutant
[5] = BH-10 cells, wild type, read-out: EC50 WT///B
[6] = BH-10 cells, K103N/Y181C mutant, read-out: EC50 K103N/Y181C
[7] = BH-10 cells, Y181C mutant, read-out: EC50 Y181C

SMILES	pEC50 (HIV BH-10 WT; [2])	pEC50 [1, 3]	pEC50 (HIV mutant strain Y181C; [4])	pEC50 (HIV BH-10 WT; [5])	pEC50 [1, 6]	pEC50 (HIV mutant strain Y181C; [7])
COP(=O)(c1cc(F)cc(Br)c1)c1c(C(N)=O)[nH]c2ccc(Cl)cc12 (stereo not drawn) [Compound 7j]	8.74	8.39	8.52			
COc1cccc(P(=O)(OC)c2c(C(N)=O)[nH]c3ccc(Cl)cc23)c1 (stereo not drawn) [Compound 7l]	9.22	7.66	7.41			
COc1ccccc1P(=O)(OC)c1c(C(N)=O)[nH]c2ccc(Cl)cc12 (stereo not drawn) [Compound 7n]				8.77	8.82	7.18
COP(=O)(c1cc(F)cc(C(F)(F)F)c1)c1c(C(N)=O)[nH]c2ccc(Cl)cc12 (stereo not drawn) [Compound 7q]	8.96	8.54	7.78			
COP(=O)(c1cc(C(F)(F)F)cc(C(F)(F)F)c1)c1c(C(N)=O)[nH]c2ccc(Cl)cc12 (stereo not drawn) [Compound 7s]	7.89	7.32	7.17			
COP(=O)(c1cccc2ccccc12)c1c(C(N)=O)[nH]c2ccc(Cl)cc12 (stereo not drawn) [Compound 7t]	9.22	8.59	8.24			
COP(=O)(c1cc(F)cc(Cl)c1)c1c(C(N)=O)[nH]c2ccc(Cl)cc12 (stereo not drawn) [Compound 7v]	9.10	8.64	7.83			
CCc1cc(C)cc(P(=O)(OC)c2c(C(N)=O)[nH]c3ccc(Cl)cc23)c1 (stereo not drawn) [Compound 7w]	9.40	8.92	8.26			
CCCc1cccc(P(=O)(OC)c2c(C(N)=O)[nH]c3ccc(Cl)cc23)c1 (stereo not drawn) [Compound 7x]	8.52	8.06	7.86			
COP(=O)(c1cc(C)cc(C)c1)c1c(C(N)=O)[nH]c2ccc(Cl)c(F)c12 (stereo not drawn) [Compound 7z]	8.68	8.66	8.07			
COP(=O)(c1cccc(C)c1)c1c(C(=O)NCc2ccncc2)[nH]c2ccc(Cl)cc12 (stereo not drawn) [Compound 18a]	9.00	8.51	8.00			
COP(=O)(c1cc(C)cc(C)c1)c1c(C(=O)NCc2cncn2C)[nH]c2ccc(Cl)cc12 (stereo not drawn) [Compound 18aaa]	8.49	8.48	8.19			
COP(=O)(c1ccccc1)c1c(C(=O)NCc2ccccc2F)[nH]c2ccc(Cl)cc12 (stereo not drawn) [Compound 18aab]	8.42	7.99	7.47			
COP(=O)(c1ccccc1)c1c(C(=O)NCN2CCOCC2)[nH]c2ccc(Cl)cc12 (stereo not drawn) [Compound 18aac]	9.30	7.85	8.00			
COP(=O)(c1cc(F)cc(F)c1)c1c(C(=O)NCc2ccccc2F)[nH]c2ccc(Cl)cc12 (stereo not drawn) [Compound 18aad]	7.96	7.90	7.42			
COP(=O)(c1cc(F)cc(F)c1)c1c(C(=O)NCc2cncn2C)[nH]c2ccc(Cl)cc12 (stereo not drawn) [Compound 18aae]	8.59	8.57	7.98			
COP(=O)(c1cc(C)cc(C#N)c1)c1c(C(=O)NCc2ccncc2)[nH]c2ccc(Cl)cc12 (stereo not drawn) [Compound 18aaf]	8.74	8.96	8.41			
COP(=O)(c1cc(C)cc(C#N)c1)c1c(C(=O)NCc2cncn2C)[nH]c2ccc(Cl)cc12 (stereo not drawn) [Compound 18aag]	8.51	8.54	7.73			
COP(=O)(c1cc(C)cc(C)c1)c1c(C(=O)NCc2c(F)cccc2F)[nH]c2ccc(Cl)cc12 (stereo not drawn) [Compound 18aah]				8.15	7.77	7.64
COP(=O)(c1cc(C)cc(C)c1)c1c(C(=O)NCc2cc(F)ccc2F)[nH]c2ccc(Cl)cc12 (stereo not drawn) [Compound 18aai]				8.44	7.74	7.81
COP(=O)(c1cc(C)cc(C)c1)c1c(C(=O)NCc2ccccc2C(F)(F)F)[nH]c2ccc(Cl)cc12 (stereo not drawn) [Compound 18aal]	7.52	7.66	7.71			
COP(=O)(c1cc(C)cc(C)c1)c1c(C(=O)NCc2ccccn2)[nH]c2ccc(Cl)cc12 (stereo not drawn) [Compound 18aam]	7.76	7.65	8.17			
COP(=O)(c1cc(C)cc(C)c1)c1c(C(=O)NCc2cccnc2)[nH]c2ccc(Cl)c(F)c12 (stereo not drawn) [Compound 18aan]	7.82	6.22	6.52			
COP(=O)(c1ccccc1)c1c(C(=O)N[C@H](C(N)=O)c2ccccc2)[nH]c2ccc(Cl)cc12 (stereo partly drawn) [Compound 18aao]	7.42	6.93	6.54			
C=Cc1cccc(P(=O)(OC)c2c(C(N)=O)[nH]c3ccc(Cl)cc23)c1 (stereo not drawn) [Compound 18aaq]	8.14	7.56	7.74			

SMILES	pEC50 (HIV BH-10 WT; [2])	pEC50 [1, 3]	pEC50 (HIV mutant strain Y181C; [4])	pEC50 (HIV BH-10 WT; [5])	pEC50 [1, 6]	pEC50 (HIV mutant strain Y181C; [7])
CCc1cccc(P(=O)(OC)c2c(C(=O)NCc3ccncc3)[nH]c3ccc(Cl)cc23)c1 (stereo not drawn) [Compound 18ap]	8.24	8.24	8.43			
COP(=O)(c1cccc(C(C)C)c1)c1c(C(=O)NCc2ccncc2)[nH]c2ccc(Cl)cc12 (stereo not drawn) [Compound 18aq]	7.92	7.73	7.50			
COP(=O)(c1ccccc1)c1c(C(=O)NCc2cncn2C)[nH]c2ccc(Cl)cc12 (stereo not drawn) [Compound 18as]	9.52	9.22	8.00			
COP(=O)(c1ccccc1)c1c(C(=O)NCc2ccco2)[nH]c2ccc(Cl)cc12 (stereo not drawn) [Compound 18at]	8.74	9.30	8.82			
COc1cccc(P(=O)(OC)c2c(C(=O)NCc3ccco3)[nH]c3ccc(Cl)cc23)c1 (stereo not drawn) [Compound 18au]	9.10	8.22	8.48			
COP(=O)(c1cc(C)cc(C)c1)c1c(C(=O)NCc2ccncc2)[nH]c2ccc(Cl)cc12 (stereo not drawn) [Compound 18ax]	8.52	8.64	8.14			
COP(=O)(c1cc(C)cc(C)c1)c1c(C(=O)NCN2CCOCC2)[nH]c2ccc(Cl)cc12 (stereo not drawn) [Compound 18ay]	8.46	8.03	7.70			
COP(=O)(c1cc(C)cc(C)c1)c1c(C(=O)NCc2ccccc2F)[nH]c2ccc(Cl)cc12 (stereo not drawn) [Compound 18az]	8.52	8.07	7.78			
COP(=O)(c1cccc(C)c1)c1c(C(=O)NCc2ccco2)[nH]c2ccc(Cl)cc12 (stereo not drawn) [Compound 18b]	8.44	8.40	8.00			
COP(=O)(c1cccc(CF)c1)c1c(C(=O)NCc2ccncc2)[nH]c2ccc(Cl)cc12 (stereo not drawn) [Compound 18c]	8.70	8.33	8.54			
COP(=O)(c1cc(C)cc(F)c1)c1c(C(=O)NCc2ccncc2)[nH]c2ccc(Cl)cc12 (stereo not drawn) [Compound 18d]	8.64	8.43	8.03			
COP(=O)(c1cc(F)cc(F)c1)c1c(C(=O)NCc2ccncc2)[nH]c2ccc(Cl)cc12 (stereo not drawn) [Compound 18e]	8.46	7.92	7.83			
COP(=O)(c1cc(C)cc(C)c1)c1c(C(=O)NCc2cccnc2)[nH]c2ccc(Cl)cc12 (stereo not drawn) [Compound 18f]	8.64	8.47	8.23			
COP(=O)(c1cc(C)cc(C)c1)c1c(C(=O)NCCc2ccncc2)[nH]c2ccc(Cl)cc12 (stereo not drawn) [Compound 18g]	7.94	8.01	7.51			
COP(=O)(c1cc(C)cc(C)c1)c1c(C(=O)NCc2ccncc2F)[nH]c2ccc(Cl)cc12 (stereo not drawn) [Compound 18h]	8.77	8.37	7.84			
COP(=O)(c1cc(C)cc(C)c1)c1c(C(=O)NCc2cnccn2)[nH]c2ccc(Cl)cc12 (stereo not drawn) [Compound 18i]	8.52	8.74	7.77			
COP(=O)(c1cc(C)cc(C)c1)c1c(C(=O)NCc2cncnc2)[nH]c2ccc(Cl)cc12 (stereo not drawn) [Compound 18j]				8.44	8.72	8.29
COP(=O)(c1cc(C)cc(C)c1)c1c(C(=O)NCc2ccc(Br)cc2)[nH]c2ccc(Cl)cc12 (stereo not drawn) [Compound 18k]	7.41	7.30	6.99			
COP(=O)(c1cc(C)cc(C)c1)c1c(C(=O)NCc2ccncn2)[nH]c2ccc(Cl)cc12 (stereo not drawn) [Compound 18l]	8.77	8.66	8.60			
COP(=O)(c1cc(C)cc(C)c1)c1c(C(=O)NCc2ccccc2N)[nH]c2ccc(Cl)cc12 (stereo not drawn) [Compound 18n]	7.71	7.64	7.06			
COP(=O)(c1cc(F)cc(F)c1)c1c(C(=O)NCc2ccc(C#N)cc2)[nH]c2ccc(Cl)cc12 (stereo not drawn) [Compound 18q]	8.52	7.27	7.45			
COP(=O)(c1cc(C)cc(C)c1)c1c(C(=O)NCc2ccncc2)[nH]c2ccc(Cl)c(F)c12 (stereo not drawn) [Compound 18r]	8.42	8.44	7.78			
COP(=O)(c1cc(F)cc(F)c1)c1c(C(=O)NCc2cc[n+]([O-])cc2)[nH]c2ccc(Cl)cc12 (stereo not drawn) [Compound 22a]	8.51	7.95	7.28			
COP(=O)(c1cc(C)cc(C#N)c1)c1c(C(=O)NCc2cc[n+]([O-])cc2)[nH]c2ccc(Cl)cc12 (stereo not drawn) [Compound 22ak]	8.15	7.96	8.17			
COP(=O)(c1cc(C)cc(C)c1)c1c(C(=O)NCc2ccc[n+]([O-])c2)[nH]c2ccc(Cl)cc12 (stereo not drawn) [Compound 22b]	8.46	8.49	7.73			
